Source: patent US20220135678A1, “METHODS AND COMPOSITIONS TO IMPROVE THE SAFETY AND EFFICACY OF CELLULAR THERAPIES” (University of Southern California, priority 2019, published 2022)
Values belong to the compound of their own block, whether it stands above or below them.

What was measured:
[1] = tested on: Molm14 AML leukemia cells; assay: AMR-dTAG or AMR-ShieldTag HSPC transplanted into NSG mice with Molm14 cells, CD33 CAR-T; type: in vivo
Excerpt: (§1) The transduced cells are also transplanted into NSG mice along with Molm14 AML leukemia cells.
as §1

[2] = tested on: CD33 on hematopoietic stem cells and progenitor cells; assay: HSPC expressing AMR-dTAG or AMR-ShieldTag targeting CD33, in vitro; type: cell-based
[3] = tested on: CD19 on RAJI (CD19+) cells; assay: CD19 surface expression on transduced RAJI cells, flow cytometry with PE-conjugated FMC63 antibody (antigen masking); type: cell-based
Excerpt: A panel of CARs targeting CD19 were generated using antigen binding domains derived from FMC63 (SEQ ID NO: 205), hu-mROO5-1 (SEQ ID NO: 211) and CD19-MM (SEQ ID NO: 209) scFVs respectively. […] The constructs also co-expressed a puromycin resistance gene (PAC). The lentiviral vectors encoding the different CAR constructs were used to infect RAJI (CD19+) cells. The cells were selected with puromycin. Flow cytometry with PE-conjugated FMC63 antibody was used to detect the expression of CD19 on the surface of the CAR-expressing cells.
In another exemplary experiment, the experiment is repeated with lentiviral vectors encoding FMC63- or hum-mROO5-1-based cTCR, Ab-TCR, TFPαβ and TFPγδ.
RAJI cells were infected with the following lentiviral vectors encoding antigen masking receptors targeting CD19 and carrying protein degradation motifs FKBP12. […] RAJI cells were selected with puromycin and examined for CD19 expression by cell surface staining with FMC63 antibody. […] Subsequently, the cells were treated with dTAG-13 (100 nM) for 24-72 h to induce degradation of the AMR.

RAJI cells = assay: Killing of AMR-expressing RAJI cells by CD19-CAR-T cells or Blinatumomab; type: cell-based; conditions: exposure to dTAG-13
Method: T cells mediated induction of lysis of target cells was assayed by increase of luciferase activity as measured by BioTek synergy plate reader by directly injecting 0.5×CTZ assay buffer containing native coeloentrazine (Nanaolight).

CD19 (on RAJI cells) [4] = target: CD19 (on RAJI cells) (UniProt P15391); assay: cell surface staining of control RAJI cells with FMC63 antibody, flow cytometry
UniProt P15391, sequence (P15391 20-556 limits assumed): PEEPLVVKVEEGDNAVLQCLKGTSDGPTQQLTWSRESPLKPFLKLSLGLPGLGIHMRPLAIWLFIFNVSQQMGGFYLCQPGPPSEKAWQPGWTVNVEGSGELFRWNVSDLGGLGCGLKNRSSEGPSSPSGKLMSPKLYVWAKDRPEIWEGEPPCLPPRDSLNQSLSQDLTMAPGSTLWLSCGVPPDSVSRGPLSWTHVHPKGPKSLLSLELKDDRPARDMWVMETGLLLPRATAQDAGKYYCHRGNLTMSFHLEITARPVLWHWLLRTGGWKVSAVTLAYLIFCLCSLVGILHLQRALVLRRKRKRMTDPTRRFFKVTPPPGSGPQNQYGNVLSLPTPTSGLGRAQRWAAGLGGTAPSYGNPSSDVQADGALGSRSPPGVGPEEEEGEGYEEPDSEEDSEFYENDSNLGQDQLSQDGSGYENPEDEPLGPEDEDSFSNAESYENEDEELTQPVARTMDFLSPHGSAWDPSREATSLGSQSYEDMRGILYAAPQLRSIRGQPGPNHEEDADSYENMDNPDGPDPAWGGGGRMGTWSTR

[5] = tested on: NALM6 (B cell acute lymphocytic leukemia cells); assay: Infection of NALM6 cells by lentivirus encoding a non-FMC63 CD19 CAR; type: cell-based; conditions: CAR scFV derived from an antibody other than FMC63
Method: The experiment in the preceding example is repeated using a lentiviral vector encoding a CD19 CAR (SEQ ID NO: 11920) comprising a scFV derived from an antibody other than FMC63 as its antigen-binding domain. The CAR is cloned in the pCCLc-MNDU3-WPRE lentiviral vector (SEQ ID NO: 3) and the resulting vector is packaged using VSVG as described in the preceding example. […] In contrast, incubation with Rituximab, a CD20 antibody, had no effect.

[6] = Patient with cytokine release syndrome and neurological complications after haploidentical stem cell transplant; type: in vivo, human
Method: A patient with myelofibroris receives haploidentical peripheral blood stem cell transplant using their child as a donor. The patient receives reduced intensity conditioning with Melphalan (100 mg/m2 on day −6), Fludarabine (25 mg/m2×4 on days −5 to −2) and total body irradiation (TBI) of 200 cGy on day −1. Following infusion of haploidentical stem cells on Day 0, the patient receives post-transplant Cyclophosphamide 50 mg/kg×2 on days+3 and +4 and intravenous hydration with normal saline at rate of 250 ml/h for 24 hours after the completion of cyclophosphamide.

CD19 (on RAJI cells) [7] = target: CD19 (on RAJI cells) (UniProt P15391); assay: cell-based or functional assay

Compound: CC[C@H](C(=O)N1CCCC[C@H]1C(=O)O[C@H](CCc1ccc(OC)c(OC)c1)c1cccc(OCCN2CCOCC2)c1)c1cc(OC)c(OC)c(OC)c1 [Shield-1]
CD33 AMR-ShieldTag fusion protein in animals after ligand treatment is stopped ([1]; Shield-1 treatment stopped): degradation of the CD33 AMR-ShieldTag fusion protein | AMR fusion protein after ligand treatment is stopped, in vitro ([2]; Shield-1 treatment stopped): degradation of AMR fusion protein

Compound: CC[C@H](C(=O)N1CCCC[C@H]1C(=O)O[C@H](CCc1ccc(OC)c(OC)c1)c1ccccc1OCC(=O)NCCCCCCOc1cccc2c1C(=O)N(C1CCC(=O)NC1=O)C2=O)c1cc(OC)c(OC)c(OC)c1 (some centres unmarked) [dTAG-13]
AMR-dTAG fusion protein in animals after ligand ([1]; 25 mg/kg daily): degradation of the AMR-dTAG fusion protein | induction of CD19 expression with increasing concentration ([3]; 1 pM to 100 nM): dose dependent induction | CD19 expression on AMR-expressing RAJI cells after ligand ([3]; 100 nM for 24-72 h, FMC63-PE staining, before treatment […]): 68.98% | killing of AMR-expressing RAJI cells by CD19-CAR-T cells or Blinatumomab upon exposure to ligand (RAJI cells): sensitized | AMR fusion protein after ligand treatment in vitro ([2]; 100 nM): degradation of AMR fusion protein

% of control RAJI cells stained for CD19 by FMC63 antibody (CD19 (on RAJI cells) [4]): 99.2%
Compound: FMC63-PE mouse monoclonal antibody

Compound: Rituximab: a CD20 antibody
infection of NALM6 by the CD19 CAR (SEQ ID NO: 11920) [5]: no effect

Compound: Tocilizumab: administered 600 mg i.v. for cytokine release syndrome
blood pressure ([6]; 600 mg i.v. on day 5 after transplantation, patient with CRS after haploidentical stem cell transplant): stabilization of blood pressure | neurological / mental status ([6]; after Tocilizumab 600 mg i.v. on day 5 after transplantation): continues to have neurological deterioration

% EGFP + RAJI Cells (infection with CD19 CAR lentivirus after incubation with Control IgG-PE) (CD19 (on RAJI cells) [7]): 29.6% | % EGFP + RAJI Cells (infection with CD19 CAR lentivirus after incubation with control IgG) (CD19 (on RAJI cells) [7]): 43.3% | % EGFP + RAJI Cells (infection with the negative control MSLN-237-HL mesothelin CAR lentivirus after incubation with Control IgG-PE) (CD19 (on RAJI cells) [7]): 20.4%
Compound: isotype control mouse IgG (antibody)
